Measurements reported in US10780090B2, “Heteroaryl compounds useful as inhibitors of SUMO activating enzyme” (Millennium Pharmaceuticals, Inc., priority 2014, dated 2020).
Like-named read-outs stand apart in the source and are kept apart here.

Target: recombinant human SAE enzyme (Homo sapiens (Human), UniProt Q9UBT2)
Test: SAE HTRF enzyme assay
Assay type: biochemical
Settings: for inhibition at 0.111 µM: read-out: Percent Inhibition
Outline: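 First, recombinant human SAE (0.11 nM) transfers Sumo-Flag onto Ubc9-GST using 0.5 μM ATP for 105 min at 24° C. Next, EDTA-containing detection buffer with labelled anti-Flag and anti-GST antibodies is added for 2 h. Finally, FRET is quantified and percent inhibition or IC50 derived.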

[1] = SAE inhibition at compound concentration 0.111 μM
[2] = SAE inhibition, class symbols, legend in nM

Chain of recombinant human SAE enzyme (Q9UBT2 whole entry): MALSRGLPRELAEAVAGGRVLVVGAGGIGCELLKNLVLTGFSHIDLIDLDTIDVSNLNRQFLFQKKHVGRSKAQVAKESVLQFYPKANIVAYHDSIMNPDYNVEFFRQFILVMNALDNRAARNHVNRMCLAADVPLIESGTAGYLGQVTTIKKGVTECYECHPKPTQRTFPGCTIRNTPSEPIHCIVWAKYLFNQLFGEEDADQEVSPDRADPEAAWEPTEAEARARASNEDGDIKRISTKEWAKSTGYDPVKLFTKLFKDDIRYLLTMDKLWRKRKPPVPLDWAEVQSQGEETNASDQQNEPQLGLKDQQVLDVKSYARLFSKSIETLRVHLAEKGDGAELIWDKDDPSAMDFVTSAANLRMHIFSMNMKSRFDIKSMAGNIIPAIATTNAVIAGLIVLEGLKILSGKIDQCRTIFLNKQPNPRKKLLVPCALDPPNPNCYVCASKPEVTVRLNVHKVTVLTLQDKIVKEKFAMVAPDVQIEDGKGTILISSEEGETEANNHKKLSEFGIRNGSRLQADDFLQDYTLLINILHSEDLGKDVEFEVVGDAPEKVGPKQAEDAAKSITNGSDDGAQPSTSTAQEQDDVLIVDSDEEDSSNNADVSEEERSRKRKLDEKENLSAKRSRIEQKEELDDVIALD
Chain of recombinant human SAE enzyme (Q9UBE0 whole entry partner): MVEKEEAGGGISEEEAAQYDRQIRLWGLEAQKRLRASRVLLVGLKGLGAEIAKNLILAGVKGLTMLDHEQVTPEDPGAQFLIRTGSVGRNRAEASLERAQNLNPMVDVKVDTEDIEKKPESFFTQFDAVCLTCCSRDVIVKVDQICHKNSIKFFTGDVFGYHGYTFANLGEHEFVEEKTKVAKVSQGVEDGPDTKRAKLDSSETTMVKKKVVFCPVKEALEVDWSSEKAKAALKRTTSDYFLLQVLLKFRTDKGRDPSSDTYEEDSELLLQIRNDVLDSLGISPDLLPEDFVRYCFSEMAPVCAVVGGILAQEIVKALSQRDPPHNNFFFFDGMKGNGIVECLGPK

SMILES | Percent Inhibition (Concentration 0.111 μM) | IC50 (class symbols A/B/C) [nM] | further results
Cc1sc(C(=O)c2cncnc2N[C@@H]2C[C@H](COS(N)(=O)=O)[C@@H](O)C2)cc1[S@+]([O-])c1cccc(Cl)c1 (single isomer, unassigned) [I-28a, [(1R,2S,4R)-4-{[5-({4-[(R)-(3-chlorophenyl)sulfinyl]-5-methyl-2-thienyl}carbonyl)pyrimidin-4-yl]amino}-2-hydroxycyclopentyl]methyl sulfamate or [(1R,2S,4R)-4-{[5-({4-[(S)-(3-chlorophenyl)sulfinyl]-5-methyl-2-thienyl}carbonyl)pyrimidin-4-yl]amino}-2-hydroxycyclopentyl]methyl sulfamate] | 66 | 10 to 100 | 
CO[C@@H](c1cccc(Br)c1)c1csc(C(=O)c2cncnc2N[C@@H]2C[C@H](COS(N)(=O)=O)[C@@H](O)C2)c1 (single isomer, unassigned) [I-73b, [(1R,2S,4R)-4-{[5-({4-[(S)-(3-Bromophenyl)(methoxy)methyl-2-thienyl}carbonyl)pyrimidin-4-yl]amino}-2-hydroxycyclopentyl]methyl sulfamate or [(1R,2S,4R)-4-{[5-(4-[(R)-(3-Bromophenyl)(methoxy)methyl]-2-thienyl)carbonyl)pyrimidin-4-yl]amino}-2-hydroxycyclopentyl]methyl sulfamate] | 98 | < 10 | 
N[C@@H](c1cccc(Br)n1)c1cc(C(=O)c2cncnc2N[C@@H]2C[C@H](COS(N)(=O)=O)[C@@H](O)[C@H]2O)sc1Cl (single isomer, unassigned) [I-10b, [(1R,2R,3S,4R)-4-{[5-({4-[(R)-amino(6-bromopyridin-2-yl)methyl]-5-chloro-2-thienyl}carbonyl)pyrimidin-4-yl]amino}-2,3-dihydroxycyclopentyl]methyl sulfamate or [(1R,2R,3S,4R)-4-{[5-({4-[(S)-amino(6-bromopyridin-2-yl)methyl]-5-chloro-2-thienyl}carbonyl)pyrimidin-4-yl]amino}-2,3-dihydroxycyclopentyl]methyl sulfamate] | 97 | < 10 | 
Cc1sc(C(=O)c2cncnc2N[C@@H]2C[C@H](COS(N)(=O)=O)[C@@H](O)C2)cc1[C@H]1OCC(F)(F)c2ccc(Cl)nc21 (mixture of isomers) [I-260, [(1R,2S,4R)-4-{[5-({4-[(8R)-2-chloro-5,5-difluoro-5,8-dihydro-6H-pyrano[3,4-b]pyridin-8-yl]-5-methyl-2-thienyl}carbonyl)pyrimidin-4-yl]amino}-2-hydroxycyclopentyl]methyl sulfamate and [(1R,2S,4R)-4-{[5-({4-[(8S)-2-chloro-5,5-difluoro-5,8-dihydro-6H-pyrano[3,4-b]pyridin-8-yl]-5-methyl-2-thienyl}carbonyl)pyrimidin-4-yl]amino}-2-hydroxycyclopentyl]methyl sulfamate] | 98 | < 10 | 
NS(=O)(=O)OC[C@H]1C[C@@H](Nc2ncncc2C(=O)c2cc(Cn3cnc4ccccc43)cs2)C[C@@H]1O [I-192, {(1R,2S,4R)-4-[(5-{[4-(1H-benzimidazol-1-ylmethyl)-2-thienyl]carbonyl}pyrimidin-4-yl)amino]-2-hydroxycyclopentyl}methyl sulfamate] |  | 10 to 100 | inhibition at 0.111 µM (Concentration 0.111 μM): 66%
Cc1cccc(Cc2csc(C(=O)c3cncnc3N[C@@H]3C[C@H](COS(N)(=O)=O)[C@@H](O)C3)n2)c1 [I-351, {(1R,2S,4R)-2-hydroxy-4-[(5-{[4-(3-methylbenzyl)-1,3-thiazol-2-yl]carbonyl}pyrimidin-4-yl)amino]cyclopentyl}methyl sulfamate] |  |  | inhibition at 0.111 µM [1]: 93%
NS(=O)(=O)OC[C@H]1C[C@@H](Nc2ncncc2C(=O)c2cc([C@H](O)c3cccc(Cl)c3)cs2)C[C@@H]1O (single isomer, unassigned) [I-4b, [(1R,2S,4R)-4-{[5-({4-[(R)-(3-chlorophenyl)(hydroxy)methyl]-2-thienyl}carbonyl)pyrimidin-4-yl]amino}-2-hydroxycyclopentyl]methyl sulfamate or [(1R,2S,4R)-4-{[5-({4-[(S)-(3-chlorophenyl)(hydroxy)methyl]-2-thienyl}carbonyl)pyrimidin-4-yl]amino}-2-hydroxycyclopentyl]methyl sulfamate] | 100 | < 10 | 
NS(=O)(=O)OC[C@H]1C[C@@H](Nc2ncncc2C(=O)c2cc([C@@H]3OCCc4ccccc43)cs2)C[C@@H]1O (single isomer, unassigned) [I-254b, [(1R,2S,4R)-4-{[5-({4-[(1R)-3,4-dihydro-1H-isochromen-1-yl]-2-thienyl}carbonyl)pyrimidin-4-yl]amino}-2-hydroxycyclopentyl]methyl sulfamate or [(1R,2S,4R)-4-{[5-({4-[(S)-3,4-dihydro-1H-isochromen-1-yl]-2-thienyl}carbonyl)pyrimidin-4-yl]amino}-2-hydroxycyclopentyl]methyl sulfamate] | 99 | < 10 | 
NS(=O)(=O)OC[C@H]1C[C@@H](Nc2ncncc2C(=O)c2cc([C@@H]3OCC(F)(F)c4ccc(Cl)cc43)cs2)C[C@@H]1O (single isomer, unassigned) [I-289b, [(1R,2S,4R)-4-{[5-({4-[(1R)-7-chloro-4,4-difluoro-3,4-dihydro-1H-isochromen-1-yl]-2-thienyl}carbonyl)pyrimidin-4-yl]amino}-2-hydroxycyclopentyl]methyl sulfamate or [(1R,2S,4R)-4-{[5-({4-[(1S)-7-chloro-4,4-difluoro-3,4-dihydro-1H-isochromen-1-yl]-2-thienyl}carbonyl)pyrimidin-4-yl]amino}-2-hydroxycyclopentyl]methyl sulfamate] |  |  | Percent Inhibition [1]: 99%; IC50 [2]: < 10 nM
NS(=O)(=O)OC[C@H]1C[C@@H](Nc2ncncc2C(=O)c2cc(COc3ccccc3C(F)(F)F)cs2)C[C@@H]1O [I-188, [(1R,2S,4R)-2-hydroxy-4-({5-[(4-{[2-(trifluoromethyl)phenoxy]methyl}-2-thienyl)carbonyl]pyrimidin-4-yl}amino)cyclopentyl]methyl sulfamate] |  | 10 to 100 | inhibition at 0.111 µM (Concentration 0.111 μM): 79%
NS(=O)(=O)OC[C@H]1C[C@@H](Nc2ncncc2C(=O)c2cc([C@H](O)c3cccc(Cl)c3)cs2)C[C@@H]1O (mixture of isomers) [I-4, [(1R,2S,4R)-4-{[5-({4-[(R)-(3-chlorophenyl)(hydroxy)methyl]-2-thienyl}carbonyl)pyrimidin-4-yl]amino}-2-hydroxycyclopentyl]methyl sulfamate and [(1R,2S,4R)-4-{[5-({4-[(S)-(3-chlorophenyl)(hydroxy)methyl]-2-thienyl}carbonyl)pyrimidin-4-yl]amino}-2-hydroxycyclopentyl]methyl sulfamate] | 99 | < 10 | 
CC(O)(c1cccc(Cl)c1)c1coc(C(=O)c2cncnc2NC2CC(O)C(COS(N)(=O)=O)C2)c1 (mixture of isomers) [I-30, {(1R,2S,4R)-4-[(5-{4-[(1S)-1-(3-chlorophenyl)-1-hydroxyethyl]-2-furoyl}pyrimidin-4-yl)amino]-2-hydroxycyclopentyl}methyl sulfamate and {(1R,2S,4R)-4-[(5-{4-[(1R)-1-(3-chlorophenyl)-1-hydroxyethyl]-2-furoyl}pyrimidin-4-yl)amino]-2-hydroxycyclopentyl}methyl sulfamate] | 98 | < 10 | 
NS(=O)(=O)OC[C@H]1C[C@@H](Nc2ncncc2C(=O)c2cc(Cc3ccc(C(F)(F)F)o3)cs2)C[C@@H]1O [I-119, [(1R,2S,4R)-2-Hydroxy-4-{(5-[(4-{[5-(trifluoromethyl)-2-furyl]methyl}-2-thienyl)carbonyl]pyrimidin-4-yl}amino)cyclopentyl]methyl sulfamate] |  | < 10 | inhibition at 0.111 µM (Concentration 0.111 μM): 96%
NS(=O)(=O)OC[C@H]1C[C@@H](Nc2ncncc2C(=O)c2cc([C@@H]3OCCc4cc(F)c(F)cc43)cs2)C[C@@H]1O (single isomer, unassigned) [I-273, [(1R,2S,4R)-4-{[5-({4-[(1R)-6,7-Difluoro-3,4-dihydro-1H-isochromen-1-yl]-2-thienyl}carbonyl)pyrimidin-4-yl]amino}-2-hydroxycyclopentyl]methyl sulfamate or [(1R,2S,4R)-4-{[5-({4-[(1S)-6,7-Difluoro-3,4-dihydro-1H-isochromen-1-yl]-2-thienyl}carbonyl)pyrimidin-4-yl]amino}-2-hydroxycyclopentyl]methyl sulfamate] | 99 | < 10 | 
NS(=O)(=O)OC[C@H]1C[C@@H](Nc2ncncc2C(=O)c2ccc([C@@H]3OCCCc4ccc(Cl)cc43)s2)C[C@@H]1O (single isomer, unassigned) [I-343a, [(1R,2S,4R)-4-{[5-({5-[(1R)-8-chloro-1,3,4,5-tetrahydro-2-benzoxepin-1-yl]-2-thienyl}carbonyl)pyrimidin-4-yl]amino}-2-hydroxycyclopentyl]methyl sulfamate or [(1R,2S,4R)-4-{[5-({5-[(1S)-8-chloro-1,3,4,5-tetrahydro-2-benzoxepin-1-yl]-2-thienyl}carbonyl)pyrimidin-4-yl]amino}-2-hydroxycyclopentyl]methyl sulfamate] |  |  | Percent Inhibition [1]: 57%; IC50 [2]: 10 to 100 nM
NS(=O)(=O)OC[C@H]1C[C@@H](Nc2ncncc2C(=O)c2cc(CC3CCCCC3)cs2)C[C@@H]1O [I-199, {(1R,2S,4R)-4-[(5-{[4-(Cyclohexylmethyl)-2-thienyl]carbonyl}pyrimidin-4-yl)amino]-2-hydroxycyclopentyl}methyl sulfamate] |  | 10 to 100 | inhibition at 0.111 µM (Concentration 0.111 μM): 63%
Cc1cnn(Cc2csc(C(=O)c3cncnc3N[C@@H]3C[C@H](COS(N)(=O)=O)[C@@H](O)C3)c2)c1 [I-74, [(1R,2S,4R)-2-hydroxy-4-{[5-({4-[(4-methyl-1H-pyrazol-1-yl)methyl]-2-thienyl}carbonyl)pyrimidin-4-yl]amino}cyclopentyl]methyl sulfamate] |  | < 10 | inhibition at 0.111 µM (Concentration 0.111 μM): 98%
